According to the supplement of paper PMC5908809:

What was measured:
[1] = system: normal NK cells expanded with K562-aAPC; experiment: percent inhibition of viability; higher = more inhibition; settings: 72 h, IL-2 2.5 ng/mL
Method: (§1)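 Drug sensitivity and resistance testing on K562-aAPC-expanded normal NK cells: 5 concentrations (10-fold steps over a 10,000-fold range), 72 h at 37 °C, viability by CellTiter-Glo normalised to DMSO and benzethonium chloride controls; DSS from the fitted curve.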

KHYG-1 (IL-2 2.5 ng/mL) [2] = experiment: drug sensitivity score (DSS) (DSS units); higher = more sensitive; extreme values may be limits of the assay; settings: 72 h
NK-92 (IL-2 2.5 ng/mL) [3] = experiment: as above; settings: 72 h
SNK-6 (IL-2 2.5 ng/mL) [4] = experiment: as above; settings: 72 h
NKL (IL-2 2.5 ng/mL) [5] = experiment: as above; settings: 72 h
[6] = system: normal primary NK cells, pool 1 (3 donors) (IL-2 2.5 ng/mL); experiment: as above; settings: 72 h
[7] = system: normal primary NK cells, pool 1 (3 donors), resting (IL-2 0 ng/mL); experiment: as above; settings: 72 h
[8] = system: normal primary NK cells, pool 2 (3 donors) (IL-2 2.5 ng/mL); experiment: as above; settings: 72 h
KAI3 (IL-2 2.5 ng/mL) [9] = experiment: as above; settings: 72 h
IMC-1 (IL-2 20 ng/mL) [10] = experiment: as above; settings: 72 h
DERL-7 (IL-2 2.5 ng/mL) [11] = experiment: as above; settings: 72 h
[12] = system: normal primary NK cells, pool 3 (3 donors) (IL-2 2.5 ng/mL); experiment: as above; settings: 72 h
YT (IL-2 2.5 ng/mL) [13] = experiment: as above; settings: 72 h
NK-YS (IL-2 2.5 ng/mL) [14] = experiment: as above; settings: 72 h
KHYG-1 (IL-2 2.5 ng/mL) [15] = experiment: percent inhibition of viability; higher = more inhibition; settings: 72 h
NK-92 (IL-2 2.5 ng/mL) [16] = experiment: as above; settings: 72 h
SNK-6 (IL-2 2.5 ng/mL) [17] = experiment: as above; settings: 72 h
NKL (IL-2 2.5 ng/mL) [18] = experiment: as above; settings: 72 h
[19] = system: normal primary NK cells, pool 1 (3 donors) (IL-2 2.5 ng/mL); experiment: as above; settings: 72 h
[20] = system: normal primary NK cells, pool 1 (3 donors), resting (IL-2 0 ng/mL); experiment: as above; settings: 72 h
[21] = system: normal primary NK cells, pool 2 (3 donors) (IL-2 2.5 ng/mL); experiment: as above; settings: 72 h
KAI3 (IL-2 2.5 ng/mL) [22] = experiment: as above; settings: 72 h
IMC-1 (IL-2 20 ng/mL) [23] = experiment: as above; settings: 72 h
DERL-7 (IL-2 2.5 ng/mL) [24] = experiment: as above; settings: 72 h
[25] = system: normal primary NK cells, pool 3 (3 donors) (IL-2 2.5 ng/mL); experiment: as above; settings: 72 h
YT (IL-2 2.5 ng/mL) [26] = experiment: as above; settings: 72 h
NK-YS (IL-2 2.5 ng/mL) [27] = experiment: as above; settings: 72 h
[28] = system: normal NK cells expanded with K562-aAPC; experiment: drug sensitivity score (DSS) (DSS units); higher = more sensitive; extreme values may be limits of the assay; settings: 72 h; IL-2 2.5 ng/mL
Method: as §1

COc1c(C)cnc(Cn2cnc3c(Cl)nc(N)nc32)c1C [BIIB021] (max concentration tested 10000 nM)
percent inhibition of viability [%]
Settings	1 nM	10 nM	100 nM	1000 nM	10000 nM
DERL-7 (IL-2 2.5 ng/mL) [24]	2.38	6.56	62.9	99.9	101
IMC-1 (IL-2 20 ng/mL) [23]	1.18	-3.95	26.6	99.6	101
KAI3 (IL-2 2.5 ng/mL) [22]	-2.5	4.1	75.8	98.8	102
KHYG-1 (IL-2 2.5 ng/mL) [15]	-2.8	-2.89	77.1	99.3	104
NK-92 (IL-2 2.5 ng/mL) [16]	-8.24	-13.2	51.8	95.9	101
NK-YS (IL-2 2.5 ng/mL) [27]	0.34	0.63	61.5	97.2	102
NKL (IL-2 2.5 ng/mL) [18]	-6.72	-10.3	45.6	85.8	86.2
SNK-6 (IL-2 2.5 ng/mL) [17]	19	-3.8	92.6	91	90.3
YT (IL-2 2.5 ng/mL) [26]	-3.19	-0.41	48.3	90.5	94.5
[1]	-1.27	-2.67	62.1	98.6	100
[19]	-3.67	7.97	27.8	79	88
[20]	15.4	12.6	10.4	36.1	51
[21]	-9.44	-10.5	39.7	81.5	83.5
[25]	-13.8	-15	16.2	78.9	87.8

Settings	drug sensitivity score
DERL-7 (IL-2 2.5 ng/mL) [11]	25.7
IMC-1 (IL-2 20 ng/mL) [10]	22
KAI3 (IL-2 2.5 ng/mL) [9]	27.3
KHYG-1 (IL-2 2.5 ng/mL) [2]	26.8
NK-92 (IL-2 2.5 ng/mL) [3]	24.4
NK-YS (IL-2 2.5 ng/mL) [14]	25.3
NKL (IL-2 2.5 ng/mL) [5]	21.3
SNK-6 (IL-2 2.5 ng/mL) [4]	28
YT (IL-2 2.5 ng/mL) [13]	22.8
[6]	17.8
[7]	8.4
[8]	20.3
[12]	16.6
[28]	25.3

C[C@@H](Nc1cc(F)cc(F)c1)c1cc(C(=O)N(C)C)cc2c(=O)cc(N3CCOCC3)oc12 [AZD-8186] (max concentration tested 1000 nM)
percent inhibition of viability [%]
Settings	0.1 nM	1 nM	10 nM	100 nM	1000 nM
DERL-7 (IL-2 2.5 ng/mL) [24]	-0.61	-0.52	0.73	12.4	17.2
IMC-1 (IL-2 20 ng/mL) [23]	-4.26	-2.05	-9.6	-12.9	-13.3
KAI3 (IL-2 2.5 ng/mL) [22]	-2.99	1.77	1.66	8.81	5.34
KHYG-1 (IL-2 2.5 ng/mL) [15]	-0.98	-2.42	-2.86	0.88	-3.51
NK-92 (IL-2 2.5 ng/mL) [16]	-5.14	-3.4	-6.34	7.87	29.8
NK-YS (IL-2 2.5 ng/mL) [27]	-5.07	-6.92	-2.82	-2.72	4.56
NKL (IL-2 2.5 ng/mL) [18]	-15.3	-13.8	-5.07	-8.33	-6.27
SNK-6 (IL-2 2.5 ng/mL) [17]	10	11.1	-10.9	-9.3	-17.3
YT (IL-2 2.5 ng/mL) [26]	-0.09	-4.44	-2.79	1.47	3.03
[1]	-7	-2.1	-0.27	1.82	6.33
[19]	-5.02	-7	5.11	5.09	16.9
[20]	3.9	-3.52	11.1	13.5	24.3
[21]	-10.7	-2.64	-11.3	-1.73	4.08
[25]	-6.84	-3.88	-7.48	-5.25	-2.65

Settings	drug sensitivity score
DERL-7 (IL-2 2.5 ng/mL) [11]	1.36
IMC-1 (IL-2 20 ng/mL) [10]	0
KAI3 (IL-2 2.5 ng/mL) [9]	0
KHYG-1 (IL-2 2.5 ng/mL) [2]	0
NK-92 (IL-2 2.5 ng/mL) [3]	2.45
NK-YS (IL-2 2.5 ng/mL) [14]	0
NKL (IL-2 2.5 ng/mL) [5]	0
SNK-6 (IL-2 2.5 ng/mL) [4]	0
YT (IL-2 2.5 ng/mL) [13]	0
[6]	0.51
[7]	2.41
[8]	0
[12]	0
[28]	0
